{"source": "patent US20110236318A1", "about": "“ANIMAL MODEL OF AN EJACULATION-LIKE REFLEX” (ASTELLAS PHARMA INC., priority 2010, published 2011)", "key": {"[1]": {"system": "ejaculation-like reflex", "assay": "Ejaculation-like reflex induced by urethral occlusion by a bend at the penile base", "assay_type": "in vivo, rat", "conditions": "anesthetized spinal cord-transected male SD rats; 1.0 mg/kg iv; occlusion 10 minutes after dosing; vs pre values; N=3", "excerpt": "Male SD rats of 300-450 g body weight (Charles River) were used under urethane anesthesia (1.2 g/kg, s.c., ACROS Organic). The skin and muscle on the back were incised to expose the 7th-9th thoracic vertebra. The vertebra on the back side was removed to expose the spinal cord, which was cut at the 8th-10th thoracic vertebra. Gelfoam (Pfizer) was imbedded in the cut site and the muscle and skin were sutured.\nThe neck skin and muscle were incised, and catheters (Intramedic polyethylene tube No. 50; Becton Dickinson) were inserted into the carotid and jugular vein for measuring the blood pressure and administering a drug, respectively. The other end of the carotid catheter was connected to a pressure transducer (CDXIII Transducer, Argon Medical Devices).\nThe lower abdominal region was subjected to median incision to expose the bladder. […] The pressure transducers connecting to the catheter inserted into the carotid […] and the catheter inserted into the proximal urethra were connected to a distortion pressure amplifier (Transbridge 4M, World Precision Instruments) installed in a polygraph system (RPS321RM, GRASS Technologies), and the blood pressure and urethral pressure were measured by a Power Labosystem (ML880 and LabChart version 6, AD Instruments) with a lapse of time. […]"}, "[2]": {"system": "ejaculatory latency", "conditions": "male rat copulatory behavior study, reported previously; cited from earlier work"}}, "data": [{"smiles": "CCCN(CCC)C1CCc2cccc(O)c2C1", "note": "(stereo not drawn) [8-OH-DPAT]", "values": [{"measurement": "latency from the start of occlusion until the first ejaculation-like reflex", "setting": "[1]", "value": "shortened the latency of the first ejaculation-like reflex"}, {"measurement": "threshold urethra pressure immediately before the first ejaculation-like reflex", "setting": "[1]", "value": "reduced the threshold urethra pressure"}, {"measurement": "ejaculatory latency", "setting": "[2]", "value": "shorten the ejaculatory latency"}]}]}
